In patent US10927398B2, “Compositions for CYP450 phenotyping using saliva samples” (Concordia University, Inc., priority 2015, dated 2021):
Where two headings read alike, the source gives them in different places.

Legend:
CYP2C19 = details: in vivo
[1] = cited from earlier work
plasma protein = details: cited from earlier work
CYP450 enzymes = details: cited from earlier work
CYP2D6 = assay: Saliva phenotyping with dextromethorphan probe (dextromethorphan/dextrorphan metabolic ratio); type: in vivo, human; details: individuals dosed with over the counter formulations
Source text: 3. […] Record the time in your lab notebook.
1. […] Repeat with the other three saliva samples.
4. […] Repeat with the other three saliva samples.

[2] = cited from earlier work; remark: listed apart in the source
[3] = Table of Exemplary Drugs, CYP3A4
[4] = Table of Exemplary Drugs, CYP2D6
[5] = Table of Exemplary Drugs, CYP2C9
[6] = Table of Exemplary Drugs, CYP2C19
[7] = Table of Exemplary Drugs, CYP1A2

## COc1ccc2nc([S+]([O-])Cc3ncc(CO)c(OC)c3C)[nH]c2c1 (centres unmarked) [5-hydroxy omeprazole]
CYP2C19
  concentrations in saliva: found in low concentrations in saliva of some individuals

## CN(C)CCc1c[nH]c2ccc(CS(=O)(=O)N3CCCC3)cc12 [Almortriptan (Axert), Almortriptan]
[1]; [3]
  ORAL BIOAVAILABILITY: 70%
Plasma protein; [3]
  PLASMA PROTEIN BINDING: 35%
CYP450 enzymes; CYP isoforms listed, Table of Exemplary Drugs, CYP3A4
  METABOLISM: 2D6, MAO

## CN1CC[C@@]23CCCC[C@@H]2[C@@H]1Cc1ccc(O)cc13 [Dextrorphan]
CYP2D6
  concentrations in saliva: sometimes found in very low concentrations in saliva

## COC(=O)C1=C(C)NC(C)=C(C(=O)OCCN(C)Cc2ccccc2)C1c1cccc([N+](=O)[O-])c1 (centres unmarked) [Nicardipine (Cardene), Nicardipine]
[1]; [3]
  ORAL BIOAVAILABILITY: 35%
[2]; [3]
  HALF-LIFE: 8.6 to 14.4 h
CYP450 enzymes
  METABOLISM: 3A4, 2C8, 2D6

## [H]/N=C(/N)N/C(=N/[H])NCCc1ccccc1 [Phenformin]
[1]; [4]
  ORAL BIOAVAILABILITY: 40-60%
Plasma protein; [4]
  PLASMA PROTEIN BINDING: 12-20% ^
[2]; [4]
  HALF-LIFE: 4 to 13 h

## CCC1(c2ccccc2)C(=O)NC(=O)NC1=O [Phenobarbital]
[1]; in vivo, po
  ORAL BIOAVAILABILITY: 80-100%
Plasma protein; plasma
  PLASMA PROTEIN BINDING: 20-60% ^
[2]; in vivo
  HALF-LIFE: 36 to 120 h

## O=C1NC(=O)C(c2ccccc2)(c2ccccc2)N1 [Phenytoin]
[1]; [5]
  ORAL BIOAVAILABILITY: 20-90%
[1]; [6]
  ORAL BIOAVAILABILITY: 20-90%
Plasma protein; [5]
  PLASMA PROTEIN BINDING: 88-93% ^
Plasma protein; [6]
  PLASMA PROTEIN BINDING: 88-93% ^
[2]; [5]
  HALF-LIFE: 14 to 22 h
[2]; [6]
  HALF-LIFE: 14 to 22 h

## CCc1ccc(CCOc2ccc(CC3SC(=O)NC3=O)cc2)nc1 (centres unmarked) [Pioglitazone]
[1]; [3]
  ORAL BIOAVAILABILITY: 50%
Plasma protein; [3]
  PLASMA PROTEIN BINDING: >99%
[2]; [3]
  HALF-LIFE: 3 to 7 h

## O=C(C1CCCCC1)N1CC(=O)N2CCc3ccccc3C2C1 (centres unmarked) [Praziquantel (Biltricide), Praziquantel]
[1]; [3]
  ORAL BIOAVAILABILITY: 80%
Plasma protein; [3]
  PLASMA PROTEIN BINDING: 80%
[2]; [3]
  HALF-LIFE: 0.8 to 3 h

## CCC1(c2ccccc2)C(=O)NCNC1=O [Primidone]
[1]; [6]
  ORAL BIOAVAILABILITY: 90-100%
Plasma protein; [6]
  PLASMA PROTEIN BINDING: 20-30% ^
[2]; [6]
  HALF-LIFE: 3.3 to 7 h

## CC(=O)[C@H]1CC[C@H]2[C@@H]3CCC4=CC(=O)CC[C@]4(C)[C@H]3CC[C@]12C [Progesterone]
[1]; [6]
  ORAL BIOAVAILABILITY: 10-15%
Plasma protein; [6]
  PLASMA PROTEIN BINDING: 95-99% ^
[2]; cell marked PV, Table of Exemplary Drugs, CYP2C19
  HALF-LIFE: PV: 5-20 min

## CC(CN1c2ccccc2Sc2ccccc21)N(C)C (centres unmarked) [Promethazine]
[1]; [4]
  ORAL BIOAVAILABILITY: 88%
Plasma protein; [4]
  PLASMA PROTEIN BINDING: 93%
[2]; [4]
  HALF-LIFE: 16 to 19 h

## CCC(=O)O[C@](Cc1ccccc1)(c1ccccc1)[C@H](C)CN(C)C [Propoxyphene (Darvon), Propoxyphene]
[1]; [3]
  ORAL BIOAVAILABILITY: 40%
Plasma protein; [3]
  PLASMA PROTEIN BINDING: 78%
[2]; [3]
  HALF-LIFE: 6 to 12 h

## Fc1ccccc1C1=NCC(=S)N(CC(F)(F)F)c2ccc(Cl)cc21 [Quazepam (Doral), Quazepam]
[1]; [3]
  ORAL BIOAVAILABILITY: 29-35%
Plasma protein; [3]
  PLASMA PROTEIN BINDING: >95%
[2]; [3]
  HALF-LIFE: 25 to 41 h

## COCCCOc1ccnc(C[S+]([O-])c2nc3ccccc3[nH]2)c1C (centres unmarked) [Rabeprazole]
[1]; [6]
  ORAL BIOAVAILABILITY: 52%
[2]; [6]
  HALF-LIFE: 1 to 2 h
CYP450 enzymes; CYP isoforms listed, Table of Exemplary Drugs, CYP2C19
  METABOLISM: 3A

## COc1ccccc1OCC(O)CN1CCN(CC(=O)Nc2c(C)cccc2C)CC1 (centres unmarked) [Ranulazine (Ranexa), Ranulazine]
[1]; [3]
  ORAL BIOAVAILABILITY: 55%
Plasma protein; [3]
  PLASMA PROTEIN BINDING: 62%
[2]; [3]
  HALF-LIFE: 7 to 8.9 h

## CCN1CCC[C@H]1CNC(=O)c1c(OC)ccc(Br)c1OC [Remoxipride]
[1]; [4]
  ORAL BIOAVAILABILITY: 96%
Plasma protein; [4]
  PLASMA PROTEIN BINDING: 5-6%
[2]; [4]
  HALF-LIFE: 3 to 6 h

## CCOc1cc(CC(=O)N[C@@H](CC(C)C)c2ccccc2N2CCCCC2)ccc1C(=O)O [Repaglinide (Prandin), Repaglinide]
[1]; [3]
  ORAL BIOAVAILABILITY: 56%
Plasma protein; [3]
  PLASMA PROTEIN BINDING: >98%
[2]; [3]
  HALF-LIFE: 1 h

## CCCN1CCCC[C@H]1C(=O)Nc1c(C)cccc1C [Ropivacaine]
[1]; cell marked IV, Table of Exemplary Drugs, CYP1A2
  ORAL BIOAVAILABILITY: 87-98% - IV
Plasma protein; [7]
  PLASMA PROTEIN BINDING: 94%
[2]; [7]
  HALF-LIFE: 5 to 7 h

## CC(C)CC(N(C)C)C1(c2ccc(Cl)cc2)CCC1 (centres unmarked) [Sibutramine (Meridia), Sibutramine]
[1]; [3]
  ORAL BIOAVAILABILITY: 77%
Plasma protein; [3]
  PLASMA PROTEIN BINDING: 97%
[2]; [3]
  HALF-LIFE: 1.1 h
